Reference: patent US20170029841A1, “METHODS AND COMPOSITIONS FOR SELECTIVE REGULATION OF PROTEIN EXPRESSION” (priority 2015, published 2017)

System: maize tissue pools (tassel, ear, leaf, root, stem)
Assay: siRNA profiling microarray assay of mts-siRNA sequences across maize tissues
Conditions: for 01DKD2 V8-V9 Tassel relative signal value: germplasm 01DKD2, V8-V9 tassel; for 01DKD2 V10-V12 Tassel relative signal value: germplasm 01DKD2, V10-V12 tassel; for 01DKD2 Other Tissue relative signal value: germplasm 01DKD2, combined signals from other tissue; for LH244 V8-V9 Tassel relative signal value: germplasm LH244, V8-V9 tassel; for LH244 V10-V12 Tassel relative signal value: germplasm LH244, V10-V12 tassel; for LH244 Other Tissue relative signal value: germplasm LH244, combined signals from other tissue
Protocol: A siRNA profiling microarray assay was performed using μParaflo® Microfluidics chips provided by LC Sciences LLC (Houston, Tex., USA) with 1,200 sequences selected from the thousands of mts-siRNA sequences identified from the differential bioinformatic analysis. The microarray chips contained triplicate probes of the complementary sequence for each of the 1,200 mts-siRNA sequences. Total RNA was purified from 26 maize tissue pools (duplicate or triplicate tissue pools) from either LH244 (ATCC deposit number PTA-1173) or 01DKD2 (I294213) (ATCC deposit number PTA-7859) inbred plants. Each of the 26 RNA samples were hybridized with the microarray chips that contain probes for the 1,200 mts-siRNA. Hybridization images were collected using a GenePix® 4000B laser scanner (Molecular Devices, Sunnyvale, Calif.) and digitized using Array-Pro® Analyzer image analysis software (Media Cybernetics, Rockville, Md.). Relative signal values were derived by background subtraction and normalization. Differentially expressed signals were determined by t-test with p<0.05. From the microarray analysis, about 500 mts-siRNA from the 1,200 were identified as being highly tassel-specific.
Selected mts-siRNA sequences aligning to one of the six cDNA sequences were used for further microarray analysis to determine differential expression across maize tissues. Microarray analysis for mts-siRNA sequences of normalized signal values for V8-V9 tassel, V10-V12 tassel, or combined signals from the other tissue for maize germplasm LH244 and 01DKD2 is presented in Tables 3-10. […] Signal value results are measured as relative signal values and standard error (p<0.05) is represented by (STDR). […] The mts-siRNA sequence corresponds to the sense or antisense strand of the corresponding mts-siRNA target sequence in the cDNA sequence. The mts-siRNA sequence may have a single nucleotide, a two nucleotide, or a three nucleotide mismatch with the aligned portion of the cDNA sequence, and the mts-siRNA sequence may align to the sense strand or antisense strand of the cDNA sequence. The mts-siRNA sequences provided here are found across different maize germplasms.

Substance	01DKD2 V8-V9 Tassel relative signal value	01DKD2 V10-V12 Tassel relative signal value	01DKD2 Other Tissue relative signal value	LH244 V8-V9 Tassel relative signal value	LH244 V10-V12 Tassel relative signal value	LH244 Other Tissue relative signal value
SEQ ID NO: 76: mts-siRNA sequence aligning to cDNA SEQ ID NO: 22 (ACAGTGACTCACCAGTGCATG; expressed or natural sequence)	2.5	276.5	4	55	252.3	5.7
SEQ ID NO: 77: mts-siRNA sequence aligning to cDNA SEQ ID NO: 22 (AAGGCAAGAAGGTGCTTGTTGTC; expressed or natural sequence)	0.5	225	2.5	180.5	302.7	4.1
SEQ ID NO: 43: mts-siRNA sequence aligning to cDNA SEQ ID NO: 19 (AGCACTCGAGCTTTCACGCCAACA; expressed or natural sequence)	4	190.5	4.3	52.5	147.3	1
SEQ ID NO: 52: mts-siRNA sequence aligning to cDNA SEQ ID NO: 19 (CTGATATCTATGCTAATTCAGG; expressed or natural sequence)	234	3286.5	3.5	4080	3629.7	5.5
SEQ ID NO: 78: mts-siRNA sequence aligning to cDNA SEQ ID NO: 22 (GCATGCACTGGTGAGTCACTGTTG; expressed or natural sequence)	3	715.5	4.5	47.5	642.7	1
SEQ ID NO: 36: mts-siRNA sequence aligning to cDNA SEQ ID NO: 18 (CGTGCATATCGCCATCCTCTGCT; expressed or natural sequence)	15.5	1225.5	4.3	906.5	606.7	2.2
SEQ ID NO: 30: mts-siRNA sequence aligning to cDNA SEQ ID NO: 17 (CACCATGCACGGTCGTCGT; expressed or natural sequence)	32	282	6.5	173.5	495.7	4.2
SEQ ID NO: 69: mts-siRNA sequence aligning to cDNA SEQ ID NO: 21 (GCTCATAAAATCACTGTTCAT; expressed or natural sequence)	309.5	282.5	9.8	516	185	11.2
SEQ ID NO: 50: mts-siRNA sequence aligning to cDNA SEQ ID NO: 19 (CTGATATCTATGCTAATTCAGG; expressed or natural sequence)	5.5	326	1.8	296	722	0
SEQ ID NO: 48: mts-siRNA sequence aligning to cDNA SEQ ID NO: 19 (AAAGTAGCTAACGACCACACCACC; expressed or natural sequence)	9.5	470.5	1	221	720.3	4.8
SEQ ID NO: 37: mts-siRNA sequence aligning to cDNA SEQ ID NO: 18 (CAGAGGATGGCGATATGCACGTTG; expressed or natural sequence)	9.5	1224.5	3.3	554	553	1.5
SEQ ID NO: 25: mts-siRNA sequence aligning to cDNA SEQ ID NO: 17 (ACGACCGTGCATGGTGAT; expressed or natural sequence)	56	440	2.3	289	824.3	2.6
SEQ ID NO: 45: mts-siRNA sequence aligning to cDNA SEQ ID NO: 19 (TAAATGGTCGTCGTATTAGCTGAT; expressed or natural sequence)	253	7195.5	5.8	7901	9982.3	8.2
SEQ ID NO: 61: mts-siRNA sequence aligning to cDNA SEQ ID NO: 21 (CTGTGATGTAGAAGCCCAGAC; expressed or natural sequence)	461	454	8	850.5	334.7	9.4
SEQ ID NO: 33: mts-siRNA sequence aligning to cDNA SEQ ID NO: 18 (AGGGTGAATCGGATGTTGAGGTGG; expressed or natural sequence)	4.5	648.5	2.8	111.5	1032.7	17.8
SEQ ID NO: 41: mts-siRNA sequence aligning to cDNA SEQ ID NO: 18 (ACCCTTGCGCCTTAACTATCGTGC; expressed or natural sequence)	5	752	3	185.5	702.7	0.9
SEQ ID NO: 57: mts-siRNA sequence aligning to cDNA SEQ ID NO: 20 (GACATTTGCAGTTCTATGGTGT; expressed or natural sequence)	29	134.5	3.8	126.5	248	2.4
SEQ ID NO: 60: mts-siRNA sequence aligning to cDNA SEQ ID NO: 20 (CGTCGTGCAGCTGGTCACCGGT; expressed or natural sequence)	75.5	303	9.3	141.5	265.7	5.8
SEQ ID NO: 82: mts-siRNA sequence aligning to cDNA SEQ ID NO: 22 (AGGCCTCCCTTCCCTATGGTAGCC; expressed or natural sequence)	71.5	211	54.8	95.5	137	217.4
SEQ ID NO: 55: mts-siRNA sequence aligning to cDNA SEQ ID NO: 20 (CGGACATTTGCAGTTCTATGGT; expressed or natural sequence)	73	405.5	1	377.5	581.7	1.1
